Source: ChEMBL document CHEMBL5380864, “Novel Synthesis of C-Methylated Phytocannabinoids Bearing Anti-inflammatory Properties” (J Med Chem, 2023)
Calls of active or inactive are those of the source. The rule behind the calls is not given here.

Key:
[1] = system: Mus musculus; test: Anti- inflammatory activity against C57BL/6 mouse model of LPS-induced peritonitis assessed as reduction in plasma IL-1beta level at 5 mg/kg, ip pre-administered for 60 mins followed by LPS-stimulation and measured after 90 mins by ELISA analysis; format: functional, organism-based; conditions: time 150.0 min
[2] = system: Mus musculus; test: Anti- inflammatory activity against C57BL/6 mouse model of LPS-induced peritonitis assessed as reduction in plasma TNF alpha level at 5 mg/kg, ip pre-administered for 60 mins followed by LPS-stimulation and measured after 90 mins by ELISA analysis; format: functional, organism-based; conditions: time 150.0 min
[3] = system: Mus musculus; test: Anti-inflammatory activity against zymosan A-induced Sabra mouse model assessed as reduction in paw swelling at 10 to 25 mg/kg, ip measured after 6 hrs; format: functional, organism-based; conditions: dose 10-25 mg/kg
[4] = system: Mus musculus; test: Anti-inflammatory activity against zymosan A-induced Sabra mouse model assessed as reduction in pain sensation at 10 to 25 mg/kg, ip measured after 6 hrs; format: functional, organism-based; conditions: dose 10-25 mg/kg
[5] = system: Mus musculus; test: Anti-inflammatory activity against zymosan A-induced Sabra mouse model assessed as reduction in TNF-alpha level at 10 to 25 mg/kg, ip measured after 24 hrs by ELISA analysis; format: functional, organism-based; conditions: dose 10-25 mg/kg
[6] = system: Mus musculus; test: Anti- inflammatory activity against C57BL/6 mouse model of LPS-induced peritonitis assessed as reduction in plasma IL-6 level at 5 mg/kg, ip pre-administered for 60 mins followed by LPS-stimulation and measured after 90 mins by ELISA analysis; format: functional, organism-based; conditions: time 150.0 min
[7] = system: BMDM; test: Inhibition of IL-1beta mRNA expression in LPS-stimulated human bone-marrow derived macrophage cells at 5 uM preincubated with compound for 3 hrs followed by LPS stimulation for 3 hrs and measured 30 mins after ATP addition by qRT-PCR analysis; format: functional, cell-based; conditions: time 6.5 hrs
[8] = system: BMDM; test: Inhibition of IL-1beta protein expression in LPS-stimulated human bone-marrow derived macrophage cells at 5 uM preincubated with compound for 3 hrs followed by LPS stimulation for 3 hrs and measured 30 mins after ATP addition by ELISA analysis; format: functional, cell-based; conditions: time 6.5 hrs
[9] = system: Mus musculus; test: Anti-inflammatory activity against zymosan A-induced Sabra mouse model assessed as reduction in paw swelling at 5 to 50 mg/kg, ip measured after 6 hrs; format: functional, organism-based; conditions: dose 5-50 mg/kg
[10] = system: Mus musculus; test: Anti-inflammatory activity against zymosan A-induced Sabra mouse model assessed as reduction in pain sensation administered intraperitoneally and measured after 6 hrs; format: functional, organism-based; conditions: dose 5-50 mg/kg, route ip
[11] = system: Mus musculus; test: Anti-inflammatory activity against zymosan A-induced Sabra mouse model assessed as reduction in TNF-alpha level at 5 to 50 mg/kg, ip measured after 24 hrs by ELSA analysis; format: functional, organism-based; conditions: dose 5-50 mg/kg
[12] = system: Mus musculus; test: Anti-inflammatory activity against zymosan A-induced Sabra mouse model assessed as reduction in pain sensation at 5 to 50 mg/kg, ip measured after 6 hrs; format: functional, organism-based; conditions: dose 5-50 mg/kg
[13] = system: Mus musculus; test: Anti-inflammatory activity against zymosan A-induced Sabra mouse model assessed as reduction in paw swelling at 5 to 25 mg/kg, ip measured after 6 hrs; format: functional, organism-based; conditions: dose 5-25 mg/kg
[14] = system: Mus musculus; test: Anti-inflammatory activity against zymosan A-induced Sabra mouse model assessed as reduction in […] at 5 to 25 mg/kg, ip measured after 6 hrs; format: functional, organism-based; conditions: dose 5-25 mg/kg
[15] = system: Mus musculus; test: Anti-inflammatory activity against zymosan A-induced Sabra mouse model assessed as reduction in TNF-alpha level at 5 to 25 mg/kg, ip measured after 24 hrs by ELISA analysis; format: functional, organism-based; conditions: dose 5-25 mg/kg
[16] = system: Mus musculus; test: Anti-inflammatory activity against zymosan A-induced Sabra mouse model assessed as reduction in TNF-alpha level administered intraperitoneally and measured after 24 hrs by ELISA analysis; format: functional, organism-based; conditions: route ip
[17] = system: Mus musculus; test: Anti- inflammatory activity against C57BL/6 mouse model of LPS-induced peritonitis assessed as reduction in plasma TNF alpha level at 10 mg/kg, ip pre-administered for 60 mins followed by LPS-stimulation and measured after 90 mins by ELISA analysis; format: functional, organism-based; conditions: time 150.0 min
[18] = system: Mus musculus; test: Anti- inflammatory activity against C57BL/6 mouse model of LPS-induced peritonitis assessed as reduction in plasma IL-1beta level at 10 mg/kg, ip pre-administered for 60 mins followed by LPS-stimulation and measured after 90 mins by ELISA analysis; format: functional, organism-based; conditions: time 150.0 min
[19] = system: Mus musculus; test: Anti- inflammatory activity against C57BL/6 mouse model of LPS-induced peritonitis assessed as reduction in plasma IL-6 level at 10 mg/kg, ip pre-administered for 60 mins followed by LPS-stimulation and measured after 90 mins by ELISA analysis; format: functional, organism-based; conditions: time 150.0 min

For `CCCCCc1cc(O)c([C@@H]2C=C(C)CC[C@H]2C(C)C)c(O)c1C`, which Activity [1] is on record?
The Activity was “Active”.

And the Activity [2]?
Its Activity is “Active”.

What about the Activity [3] of the same compound?
The Activity was “Active”.

And the Activity [4]?
Its Activity is “Active”.

And the Activity [5]?
Its Activity is “Active”.

And the Activity [6]?
The Activity was “inactive”.

What about the inhibition [7] of the same compound?
Its inhibition is “Active”.

And the inhibition [8]?
Its inhibition is “Active”.

`C=C(C)[C@@H]1CCC(C)=C[C@H]1c1c(O)c(C)c(CCCCC)c(C)c1O` was tested. Which Activity [9] did it give?
Its Activity is “Active”.

And the Activity [10]?
Its Activity is “Dose-Dependent Effect”.

What about the Activity [11] of the same compound?
The Activity was “Active”.

What does the source list for `C=C(C)[C@@H]1CCC(C)=C[C@H]1c1c(O)cc(CCCCC)c(C)c1O`?
Activity [9]: Active; Activity [12]: Active; Activity [11]: Active

How did the Activity [1] turn out when `CCCCCc1cc(O)c(C/C=C(\C)CCC=C(C)C)c(O)c1C` was run?
The Activity was “Active”.

What about the Activity [2] of the same compound?
Its Activity is “inactive”.

What about the Activity [13] of the same compound?
Its Activity is “Active”.

And the Activity [14]?
The Activity was “Active”.

What about the Activity [15] of the same compound?
Its Activity is “Active”.

What about the Activity [6] of the same compound?
Its Activity is “inactive”.

How did the Activity [13] turn out when `C=C(C)[C@@H]1CCC(C)=C[C@H]1c1c(O)cc(O)c(C)c1CCCCC` was run?
Its Activity is “Active”.

And the Activity [14]?
The Activity was “Active”.

And the Activity [16]?
The Activity was “Dose-Dependent Effect”.

Which Activity [9] does the source give for `CCCCCc1cc(OC)c(C/C=C(\C)CCC=C(C)C)c(OC)c1C` here?
Its Activity is “Active”.

And the Activity [12]?
Its Activity is “Active”.

What about the Activity [11] of the same compound?
Its Activity is “Active”.

With `C=C(C)[C@@H]1CCC(C)=C[C@H]1c1c(OC)cc(CCCCC)c(C)c1OC` as the compound, how does the Activity [3] read?
The Activity was “Active”.

What about the Activity [4] of the same compound?
The Activity was “Active”.

And the Activity [5]?
The Activity was “Active”.

What about the Activity [17] of the same compound?
The Activity was “Active”.

What about the Activity [18] of the same compound?
The Activity was “inactive”.

What about the Activity [19] of the same compound?
Its Activity is “inactive”.
